Test results published in US20020028472A1, “Methods for identifying inhibitors of the anaphase promoting complex” (priority 2000, published 2002).

Biological target: T1, APC11 fused to Maltose Binding Protein (MBP-APC11) (Homo sapiens, UniProt Q9NYG5)
T1 construct: obtained by inserting the APC11 coding region into the commercially available vector pMAL, New England Biolabs; made in house; host or cells: E. coli, grown with 1 mM ZnCl2; purified on amylose resin
Assay: FRET assay of APC11-mediated formation of multiubiquitin chains
Type: biochemical
Conditions: DTT titrated 0 to 30 mM; 60 min at 37° C.; E1 UBA1, E2 HIS-UBCH5b; FRET europium/allophycocyanin

T1 sequence (Q9NYG5 whole entry, the tested form may be a part): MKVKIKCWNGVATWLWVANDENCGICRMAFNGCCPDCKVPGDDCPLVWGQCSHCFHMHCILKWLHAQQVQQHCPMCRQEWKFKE

O[C@H](CS)[C@H](O)CS (racemic) [DTT, dithiothreitol] was tested, and the “inhibition of the APC11-mediated formation of multiubiquitin chains” value was “inhibition”.
